# Results published in ChEMBL document CHEMBL5154732, “Discovery of indol-6-yl-pyrrolo[2,3-c]pyridin-7-one derivatives as bromodomain-containing protein 4 (BRD4) inhibitors for the treatment of kidney fibrosis” (Eur J Med Chem, 2022).
# The source made the active and inactive calls. The calls are words filed in the database; no cut-off is given here.
# Experiments:
# [1] = molecular target: Bromodomain-containing protein 4 (Homo sapiens, UniProt O60885); assay: Inhibition of His-tagged […] recombinant BRD4 (unknown origin) (21 to 153 residues) using SGRGK(Ac)GGK(Ac)GLGK(Ac)GGAK(Ac)RHRK(Biotin)-OH as substrate measured after 1 hr by HTRF assay
# [2] = Volume of distribution at steady state in ICR mouse at 2 mg/kg, iv measured at 0.083 to 24 hrs by LC-MS/MS analysis; format: ADME, organism-based; conditions: in vivo, time 0.083-24 hrs, read-out: Vdss
# [3] = AUC (0 to infinity) in ICR mouse at 30 mg/kg, po measured at 0.083 to 24 hrs by LC-MS/MS analysis; format: ADME, organism-based; design: time lower 0.083 hrs, dose 30 mg/kg, time upper 24 hrs, route po; conditions: in vivo
# [4] = Toxicity in mouse assessed as pathological changes in heart at 30 mg/kg/day by H and E staining method; format: organism-based; conditions: in vivo
# [5] = Cmax in ICR mouse at 30 mg/kg, po measured at 0.083 to 24 hrs by LC-MS/MS analysis; format: ADME, organism-based; design: time 0.083-24 hrs, dose 30 mg/kg, route po; conditions: in vivo
# [6] = Toxicity in mouse assessed as effect on alanine aminotransferase level in serum at 30 mg/kg/day; format: organism-based; conditions: in vivo
# [7] = Toxicity in mouse assessed as effect on aspartate aminotransferase level in serum at 30 mg/kg/day; format: organism-based; conditions: in vivo
# [8] = Toxicity in mouse assessed as effect on serum urea level at 30 mg/kg/day; format: organism-based; conditions: in vivo
# [9] = AUC (0 to t) in ICR mouse at 30 mg/kg, po measured at 0.083 to 24 hrs by LC-MS/MS analysis; format: ADME, organism-based; design: time lower 0.083 hrs, dose 30 mg/kg, time upper 24 hrs, route po; conditions: in vivo
# [10] = Toxicity in mouse assessed as effect on serum creatinine level at 30 mg/kg/day; format: organism-based; conditions: in vivo
# [11] = Toxicity in mouse assessed as pathological changes in lung at 30 mg/kg/day by H and E staining method; format: organism-based; conditions: in vivo
# [12] = Clearance in ICR mouse at 2 mg/kg, iv measured at 0.083 to 24 hrs by LC-MS/MS analysis; format: ADME, organism-based; conditions: in vivo, time 0.083-24 hrs
# [13] = molecular target: Bromodomain-containing protein 2 (Homo sapiens, UniProt P25440); assay: Inhibition of His-tagged recombinant BRD2 (unknown origin) (11 to 162 residues) using SGRGK(Ac)GGK(Ac)GLGK(Ac)GGAK(Ac)RHRK(Biotin)-OH as substrate measured after 1 hr by HTRF assay
# [14] = Oral bioavailability in ICR mouse at 30 mg/kg measured at 0.083 to 24 hrs by LC-MS/MS analysis; format: ADME, organism-based; conditions: in vivo, time 0.083-24 hrs
# [15] = molecular target: T1, Bromodomain-containing protein 1 (Homo sapiens, UniProt O95696); assay: Inhibition of His-tagged recombinant BRD1 (unknown origin) (11 to 190 residues) using SGRGK(Ac)GGK(Ac)GLGK(Ac)GGAK(Ac)RHRK(Biotin)-OH as substrate measured after 1 hr by HTRF assay
# T1 sequence (O95696 whole entry): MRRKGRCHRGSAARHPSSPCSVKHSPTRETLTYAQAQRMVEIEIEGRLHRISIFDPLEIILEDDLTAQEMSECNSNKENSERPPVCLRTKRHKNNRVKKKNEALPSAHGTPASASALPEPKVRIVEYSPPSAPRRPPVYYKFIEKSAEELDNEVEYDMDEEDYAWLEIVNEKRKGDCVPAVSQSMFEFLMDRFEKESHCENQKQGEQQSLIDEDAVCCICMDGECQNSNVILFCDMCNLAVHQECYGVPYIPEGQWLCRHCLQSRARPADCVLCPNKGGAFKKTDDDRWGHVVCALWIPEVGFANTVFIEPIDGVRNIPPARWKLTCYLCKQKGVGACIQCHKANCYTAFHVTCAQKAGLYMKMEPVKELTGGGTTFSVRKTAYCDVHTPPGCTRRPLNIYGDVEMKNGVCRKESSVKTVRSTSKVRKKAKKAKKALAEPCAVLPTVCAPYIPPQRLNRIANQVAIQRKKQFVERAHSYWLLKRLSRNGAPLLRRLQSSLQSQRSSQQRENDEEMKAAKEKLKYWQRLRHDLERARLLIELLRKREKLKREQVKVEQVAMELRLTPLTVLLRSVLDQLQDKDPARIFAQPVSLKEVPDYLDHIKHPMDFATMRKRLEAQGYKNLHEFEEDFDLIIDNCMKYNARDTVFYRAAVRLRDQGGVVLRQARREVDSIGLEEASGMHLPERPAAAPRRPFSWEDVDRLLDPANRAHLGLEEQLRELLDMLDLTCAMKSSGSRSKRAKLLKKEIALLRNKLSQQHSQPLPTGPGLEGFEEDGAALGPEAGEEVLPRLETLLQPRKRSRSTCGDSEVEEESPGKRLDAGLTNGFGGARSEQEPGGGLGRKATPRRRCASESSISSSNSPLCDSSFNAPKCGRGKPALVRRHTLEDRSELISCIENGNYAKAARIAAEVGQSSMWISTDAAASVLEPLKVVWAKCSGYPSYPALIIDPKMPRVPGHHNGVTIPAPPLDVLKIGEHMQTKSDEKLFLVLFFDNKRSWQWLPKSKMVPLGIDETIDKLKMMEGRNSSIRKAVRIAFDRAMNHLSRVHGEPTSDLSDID
# [16] = molecular target: Bromodomain-containing protein 3 (Homo sapiens, UniProt Q15059); assay: Inhibition of His-tagged recombinant BRD3 (unknown origin) (11 to 166 residues) using SGRGK(Ac)GGK(Ac)GLGK(Ac)GGAK(Ac)RHRK(Biotin)-OH as substrate measured after 1 hr by HTRF assay
# [17] = Toxicity in mouse assessed as pathological changes in spleen at 30 mg/kg/day by H and E staining method; format: organism-based; conditions: in vivo
# [18] = Tmax in ICR mouse at 30 mg/kg, po measured at 0.083 to 24 hrs by LC-MS/MS analysis; format: ADME, organism-based; conditions: in vivo, time 0.083-24 hrs
# [19] = molecular target: Bromodomain testis-specific protein (Homo sapiens, UniProt Q58F21); assay: Inhibition of His-tagged recombinant BRDT (unknown origin) (21 to 153 residues) using SGRGK(Ac)GGK(Ac)GLGK(Ac)GGAK(Ac)RHRK(Biotin)-OH as substrate measured after 1 hr by HTRF assay
# [20] = Half life in ICR mouse at 30 mg/kg, po measured at 0.083 to 24 hrs by LC-MS/MS analysis; format: ADME, organism-based; conditions: in vivo, time 0.083-24 hrs
# [21] = molecular target: T2, Bromodomain and PHD finger-containing protein 3 (Homo sapiens, UniProt Q9ULD4); assay: Inhibition of His-tagged recombinant BRPF3 (unknown origin) (11 to 188 residues) using SGRGK(Ac)GGK(Ac)GLGK(Ac)GGAK(Ac)RHRK(Biotin)-OH as substrate measured after 1 hr by HTRF assay
# T2 sequence (Q9ULD4 whole entry): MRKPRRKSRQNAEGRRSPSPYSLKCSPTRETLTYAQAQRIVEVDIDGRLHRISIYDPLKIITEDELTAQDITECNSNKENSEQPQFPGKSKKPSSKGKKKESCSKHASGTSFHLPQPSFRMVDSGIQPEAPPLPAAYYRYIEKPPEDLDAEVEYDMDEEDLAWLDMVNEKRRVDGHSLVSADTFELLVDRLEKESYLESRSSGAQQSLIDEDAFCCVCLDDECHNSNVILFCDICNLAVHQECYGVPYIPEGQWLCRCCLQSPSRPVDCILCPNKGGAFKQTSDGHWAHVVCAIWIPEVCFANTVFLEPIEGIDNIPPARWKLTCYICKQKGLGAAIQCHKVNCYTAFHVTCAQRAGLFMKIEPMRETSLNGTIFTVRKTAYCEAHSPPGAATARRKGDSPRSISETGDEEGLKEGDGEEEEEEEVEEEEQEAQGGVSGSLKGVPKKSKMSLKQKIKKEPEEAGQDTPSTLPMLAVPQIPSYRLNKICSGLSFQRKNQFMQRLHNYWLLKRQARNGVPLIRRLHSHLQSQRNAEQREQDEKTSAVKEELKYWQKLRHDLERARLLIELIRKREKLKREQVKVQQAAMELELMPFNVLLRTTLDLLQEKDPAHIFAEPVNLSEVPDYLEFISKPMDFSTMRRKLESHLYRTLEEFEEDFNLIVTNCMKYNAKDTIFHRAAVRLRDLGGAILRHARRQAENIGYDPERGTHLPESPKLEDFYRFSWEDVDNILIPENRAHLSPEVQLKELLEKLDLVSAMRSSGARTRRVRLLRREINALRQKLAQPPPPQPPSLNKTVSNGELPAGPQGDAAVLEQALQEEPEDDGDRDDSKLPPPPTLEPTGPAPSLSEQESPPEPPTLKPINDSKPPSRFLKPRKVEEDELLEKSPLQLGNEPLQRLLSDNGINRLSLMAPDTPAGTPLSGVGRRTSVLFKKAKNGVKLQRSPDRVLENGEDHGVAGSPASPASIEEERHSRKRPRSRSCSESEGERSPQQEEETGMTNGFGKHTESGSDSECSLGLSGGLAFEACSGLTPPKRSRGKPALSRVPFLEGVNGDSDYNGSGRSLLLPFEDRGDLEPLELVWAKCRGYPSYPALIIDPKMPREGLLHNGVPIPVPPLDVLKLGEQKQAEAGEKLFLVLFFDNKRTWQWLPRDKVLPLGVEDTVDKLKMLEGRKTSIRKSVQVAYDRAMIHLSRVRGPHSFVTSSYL
# [22] = Toxicity in mouse assessed as pathological changes in liver at 30 mg/kg/day by H and E staining method; format: organism-based; conditions: in vivo
# Mus musculus [23] = assay: Nephroprotective activity against unilateral ureteral obstruction kidney injury C57BL/6J mouse model assessed as decreased kidney damage at 100 mg/kg, ip administered for 8 consecutive days by H & E staining based assay; format: functional, organism-based; conditions: time 8.0 day
# Mus musculus [24] = assay: Nephroprotective activity against unilateral ureteral obstruction kidney injury C57BL/6J mouse model assessed as decreased fibrotic scores at 100 mg/kg, ip administered for 8 consecutive days by Masson's staining based assay; format: functional, organism-based; conditions: time 8.0 day
# Mus musculus [25] = assay: Anti-fibrotic activity against unilateral ureteral obstruction kidney injury C57BL/6J mouse model assessed as suppression of UUO-induced alpha-SMA expression in kidney at 100 mg/kg, ip administered daily measured after 7 days by immunohistochemistry staining analysis; format: functional, organism-based; conditions: time 7.0 day
# Mus musculus [26] = assay: Nephroprotective activity against unilateral ureteral obstruction kidney injury C57BL/6J mouse model assessed as decreased tubular injury score at 100 mg/kg, ip administered for 8 consecutive days by H & E staining based assay; format: functional, organism-based; conditions: time 8.0 day
# Bromodomain-containing protein 2, sequence (P25440 whole entry, the tested form may be a part): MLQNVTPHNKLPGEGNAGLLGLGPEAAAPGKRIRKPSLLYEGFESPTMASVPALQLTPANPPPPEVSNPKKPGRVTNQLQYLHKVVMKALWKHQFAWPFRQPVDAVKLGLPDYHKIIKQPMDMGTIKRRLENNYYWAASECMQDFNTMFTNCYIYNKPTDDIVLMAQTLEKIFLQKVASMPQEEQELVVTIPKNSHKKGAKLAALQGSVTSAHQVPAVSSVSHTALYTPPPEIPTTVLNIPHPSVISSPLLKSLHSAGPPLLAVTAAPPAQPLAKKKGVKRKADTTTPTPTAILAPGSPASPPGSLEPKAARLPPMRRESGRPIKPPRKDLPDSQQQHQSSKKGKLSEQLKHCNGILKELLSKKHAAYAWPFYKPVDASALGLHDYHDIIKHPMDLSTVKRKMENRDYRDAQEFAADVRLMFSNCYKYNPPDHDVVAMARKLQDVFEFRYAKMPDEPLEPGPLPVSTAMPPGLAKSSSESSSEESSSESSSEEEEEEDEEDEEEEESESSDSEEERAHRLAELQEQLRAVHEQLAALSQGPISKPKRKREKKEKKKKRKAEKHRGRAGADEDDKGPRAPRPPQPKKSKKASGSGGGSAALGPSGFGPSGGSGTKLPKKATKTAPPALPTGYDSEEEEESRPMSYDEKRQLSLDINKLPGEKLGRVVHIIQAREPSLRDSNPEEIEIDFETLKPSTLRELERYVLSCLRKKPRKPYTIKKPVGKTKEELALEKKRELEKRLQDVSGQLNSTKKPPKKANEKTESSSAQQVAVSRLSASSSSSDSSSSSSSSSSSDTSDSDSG
# Bromodomain-containing protein 3, sequence (Q15059 whole entry, the tested form may be a part): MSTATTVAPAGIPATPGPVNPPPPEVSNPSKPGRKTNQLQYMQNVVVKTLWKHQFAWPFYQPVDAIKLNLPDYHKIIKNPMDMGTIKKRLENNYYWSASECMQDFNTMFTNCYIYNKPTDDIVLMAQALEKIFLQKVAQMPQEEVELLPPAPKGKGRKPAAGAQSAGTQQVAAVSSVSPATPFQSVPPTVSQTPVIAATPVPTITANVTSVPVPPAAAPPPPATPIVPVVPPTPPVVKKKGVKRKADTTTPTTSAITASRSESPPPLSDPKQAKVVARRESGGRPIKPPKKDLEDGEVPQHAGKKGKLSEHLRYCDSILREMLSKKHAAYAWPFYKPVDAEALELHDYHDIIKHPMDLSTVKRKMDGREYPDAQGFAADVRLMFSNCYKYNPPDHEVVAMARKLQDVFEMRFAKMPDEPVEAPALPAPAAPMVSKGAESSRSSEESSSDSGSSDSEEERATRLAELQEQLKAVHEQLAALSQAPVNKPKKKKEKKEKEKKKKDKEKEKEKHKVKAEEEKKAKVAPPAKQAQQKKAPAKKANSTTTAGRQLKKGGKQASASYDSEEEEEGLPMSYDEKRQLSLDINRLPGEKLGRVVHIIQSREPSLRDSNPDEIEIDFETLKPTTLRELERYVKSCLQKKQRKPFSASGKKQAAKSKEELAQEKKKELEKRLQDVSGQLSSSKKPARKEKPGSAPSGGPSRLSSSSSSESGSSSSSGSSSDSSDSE
smiles,measurement,setting,value
Cc1noc(C)c1-c1ccc2c(C)cn(Cc3cc(F)cc(F)c3)c2c1,IC50,[1],> 3 µM
Cn1cc(-c2ccc3ccn(Cc4ccccn4)c3c2)c2cc[nH]c2c1=O,Vd,[2],2.08 L/kg
same,AUC(0-inf),[3],0.323 µg·h/mL
same,Activity,[4],Non-Toxic
same,Cmax,[5],0.39 µg/mL
same,Activity,[6],Non-Toxic
same,IC50,[1],0.107 µM
same,Activity,[7],Non-Toxic
same,Activity,[8],Non-Toxic
same,AUC(0-t),[9],0.319 µg·h/mL
same,Activity,[10],Non-Toxic
same,Activity,[11],Non-Toxic
same,clearance,[12],7.48 L/h/kg
same,IC50,[13],0.718 µM
same,bioavailability,[14],7.91%
same,IC50,[15],> 1 µM
same,IC50,[16],0.502 µM
same,Activity,[17],Non-Toxic
same,Tmax,[18],11.4 min
same,IC50,[19],> 1 µM
same,half-life,[20],80.4 min
same,IC50,[21],> 1 µM
same,Activity,[22],Non-Toxic
Cc1noc(C)c1-c1ccc2ccn(Cc3ccccn3)c2c1,IC50,[1],0.481 µM
Cc1noc(C)c1-c1ccc2c(C)cn(Cc3ccccc3)c2c1,IC50,[1],> 3 µM
COc1cc(Cn2ccc3ccc(-c4c(C)noc4C)cc32)cc(OC)c1,IC50,[1],> 3 µM
Cc1noc(C)c1-c1ccc2ccn(Cc3ccccc3)c2c1,IC50,[1],2.65 µM
Cc1noc(C)c1-c1ccc2ccn(C3CCCC3)c2c1,IC50,[1],> 3 µM
CC(c1ccccc1)n1ccc2ccc(-c3cn(C)c(=O)c4[nH]ccc34)cc21 (stereo not drawn),IC50,[1],0.504 µM
Cc1noc(C)c1-c1ccc2ccn(Cc3ccc(F)cc3)c2c1,IC50,[1],> 3 µM
O=C1NC=C(c2ccc3ccn(Cc4cc(F)cc(F)c4)c3c2)C2C=CNC12 (stereo not drawn),IC50,[1],0.347 µM
CCC(C)n1ccc2ccc(-c3c(C)noc3C)cc21 (stereo not drawn),IC50,[1],> 3 µM
CCCC(C)n1ccc2ccc(-c3c(C)noc3C)cc21 (stereo not drawn),IC50,[1],2.44 µM
Cc1noc(C)c1-c1ccc2ccn(Cc3ccc(C(F)(F)F)cc3)c2c1,IC50,[1],> 3 µM
O=C1NC=C(c2ccc3ccn(Cc4ccc(F)cc4)c3c2)C2C=CNC12 (stereo not drawn),IC50,[1],0.417 µM
Cc1sc2c(c1C)C(c1ccc(Cl)cc1)=N[C@@H](C(=O)OC(C)(C)C)c1nnc(C)n1-2,Activity,Mus musculus [23],Active
same,Activity,Mus musculus [24],Active
same,Activity,Mus musculus [25],Active
same,IC50,[1],0.092 µM
same,Activity,Mus musculus [26],Active
Cc1cn(Cc2cc(F)cc(F)c2)c2cc(C3=CN(C)C(=O)C4NC=CC34)ccc12 (stereo not drawn),IC50,[1],0.419 µM
O=C1NC=C(c2ccc3ccn(Cc4ccccc4)c3c2)C2C=CNC12 (stereo not drawn),IC50,[1],0.471 µM
Cc1noc(C)c1-c1ccc2ccn(C(C)c3ccccc3)c2c1 (stereo not drawn),IC50,[1],> 3 µM
Cc1cn(Cc2ccccc2)c2cc(-c3cn(C)c(=O)c4[nH]ccc34)ccc12,IC50,[1],0.514 µM
CCC(C)n1ccc2ccc(-c3cn(C)c(=O)c4[nH]ccc34)cc21 (stereo not drawn),IC50,[1],0.674 µM
Cc1noc(C)c1-c1ccc2ccn(Cc3cc(F)cc(F)c3)c2c1,IC50,[1],> 3 µM
COc1cc(Cn2ccc3ccc(C4=CNC(=O)C5NC=CC45)cc32)cc(OC)c1 (stereo not drawn),IC50,[1],0.559 µM
CCCC(C)n1ccc2ccc(C3=CNC(=O)C4NC=CC34)cc21 (stereo not drawn),IC50,[1],0.578 µM
